We go through two compounds from US20130198900A1, “"THIAMINE PYROPHOSPHATE (TPP) RIBOSWITCH MUTANTS PRODUCING VITAMIN B1 ENRICHED FOOD AND FEED CROPS"” (BEN-GURION UNIVERSITY OF THE NEGEV, priority 2010, published 2013).

Assay [1] concerns thiamine biosynthetic enzymes. To be noted: Reddick et al., 2001; cited from earlier work.
In the next assay the test system is AtTHIC gene. The experiment in a line: AtTHIC transcript levels (qPCR) under bacimethrin treatment in wt, upf1 and upf3 plants. It counts as in vivo, Arabidopsis. As to conditions: 1 mM bacimethrin. On the procedure:
Quantitative Real Time PCR (qPCR) gene expression analysis was performed with three biological replicates using gene/variant-specific qPCR oligonucleotide-pairs, designed with Primer Express software (Applied Biosystems). AtUBIQUITIN C (At5g25760) was used as endogenous control for all analyses. Fixed amount of DNAse-treated total RNA was reverse transcribed using AMV Reverse Transcriptase (EurX Ltd., Poland). RT-PCR reactions were tracked on an ABI 7300 instrument (Applied Biosystems) using the PlatinumR SYBR SuperMix (Invitrogen). Each sample was PCR-amplified from the same amount of cDNA template in triplicate reactions. Following an initial step in the thermal cycler for 10 min at 95° C., PCR amplification proceeded for 40 cycles of 15 s at 95° C. and 60 s at 60° C., and completed by melting curve analysis to confirm specificity of PCR products. The baseline and threshold values were adjusted according to manufacturer's instructions.
Given the importance of the AtTHIC gene for thiamine biosynthesis, its mode of regulation, particularly the nature of the high turnover of the intron-spliced variant compared to the intron-retained variant was further examined. Since the spliced variant contains two introns in its 3′ UTR, its instability could be due to the activity of the non-sense mediated decay (NMD) pathway (Kertesz S et al., 2006. Nucleic Acids Res 34, 6147-6157). Thus, the level of this transcript was measured in the background of upf1 and upf3 mutants of Arabidopsis affected in the NMD pathway (Arciga-Reyes L et al., 2006. Plant J 47, 480-489). Transcript level was examined in both normal and low TPP concentrations (FIG. 9). Lowering the plant endogenous TPP levels in these experiments was obtained using 1 mM bacimethrin, an anti-metabolite that inhibits thiamine production (Reddick et al., 2001; ibid). In wt plants as well as in the upf1 and upf3 mutants, bacimethrin treatment (preventing thiamine accumulation) caused the upregulation of the total AtTHIC transcript and of its intron-retention variant (FIGS. 9A and 9B, respectively). […] Thus, the accumulation of this transcript in the upf mutants can be explained by an increase in its stability since the NMD trans-factors are missing. It should also be noticed, that due to the accumulation of the intron-spliced variant under bacimethrin treatment, the total AtTHIC transcripts are more abundant in the upf mutants.
On the technique in general: In qPCR the cycle at which signal appears reflects the starting amount.

The test system of a further assay is thiamine biosynthesis. Put plainly: Bacimethrin treatment of wild type plants, thiamine and TPP levels by HPLC. It counts as in vivo, Arabidopsis. As to conditions: 1 mM in growth medium, wild type plants (FIG. 26). The procedure: Bacimethrin is a naturally occurring thiamine anti-metabolite. It is converted to 2′-methoxy-thiamine pyrophosphate by the thiamine biosynthetic enzymes at a rate that is 6 times faster than the rate of conversion of the natural substrate HMP to thiamine pyrophosphate (Reddick J J et al., 2001. Bioorg Med Chem Lett 11, 2245-2248). Since bacimethrin is a thiamine biosynthesis inhibitor in bacteria, its potency in plants was examined.
Samples (100 mg) were harvested from three weeks old plants grown in short day conditions at the end of the light period, and immediately frozen in liquid nitrogen. The plant samples were then grinded followed by the addition of 400 μl of 0.1M HCl, and sonicated in a water bath for 30 min. The resulting extracts were centrifuged at 14,000 rpm (in a regular bench centrifuge) for 10 min. […] Thiochrome derivatives of thiamine, TMP, and TPP were detected by fluorescence at excitation 370 nm and emission 430 nm. Different concentrations of thiamine, thiamine monophosphate (TMP) and thiamine pyrophosphate (TPP) standards were analyzed using the same extraction procedure and chromatographic conditions. […] For quantification of the samples, the peak areas of the samples were compared to the corresponding standard curve.

The test system of assay [2] is AtTHIC promoter and AtTHIC 3' UTR (TPP riboswitch). Put plainly: Dual reporter assay (RFP under AtTHIC promoter, YFP fused to AtTHIC 3' UTR) with exogenous TPP. In kind it is in vivo, Arabidopsis. The procedure: Arabidopsis thaliana plants (ecotype Columbia, Col-0) were grown on soil in climate rooms (22° C.; 70% humidity; 16/8 hr light/dark for long day conditions and 10/14 hr light/dark for short day conditions). The Atthi1 and Atthic mutants were obtained from the European Arabidopsis Stock Center (NASC; http://arabidopsis.info/; stock ID: N3375; salk—011114 respectively). For experiments involving TPP addition, plants were grown for 14 days in petri dishes on MS media (basal salt mixture; Duchefa, Haarlem, The Netherlands) with 1% sucrose and 1% agar, to which TPP (Sigma, Cat. no. C8754, water soluble) was added up to the indicated concentration.
In order to determine whether the diurnal changes of AtTHIC expression are caused by the light or by the circadian clock, Arabidopsis plants were subjected to a circadian assay (see material and methods above). […] In the growth conditions used herein, the transcripts reached their highest expression level at the beginning of the dark period and their lowest expression level shortly after the beginning of the light period. […] To separate between these two modes of gene control, a dual reporter assay was developed, allowing observing the in vivo activity of both elements. Expression of one reporter gene, YELLOW FLUORESCENT PROTEIN(YFP) was under the control of a constitutive promoter (CaMV-35S) and fused to the AtTHIC 3′ UTR. A second reporter gene, RED FLUORESCENT PROTEIN(RFP) was placed under the regulation of the native AtTHIC promoter and fused to the NOS terminator (FIG. 4). These two reporters were introduced into the Arabidopsis wild type (wt) and thi1 mutant (deficient in thiamine biosynthesis), and their expression was monitored under various conditions. Wild type plants harboring this double reporter genes system were subjected to a circadian assay.
The expression level of the above-described reporter genes (YFP and RFP) in fully grown plants was also determined. […]
A general note: Reporter assays use an easily measured gene product as a stand-in for the process of interest.

With `COc1ncc(CO)c(N)n1` [bacimethrin], the “rate of conversion to 2'-methoxy-thiamine pyrophosphate relative to conversion of natural substrate HMP to thiamine pyrophosphate” value in assay [1] is reported as 6 times faster. The “AtTHIC intron-spliced variant transcript” value in the assay with AtTHIC gene (upf1 and upf3 mutants (FIG. 9C)) is reported as “did not decrease”. In addition, in the assay on AtTHIC gene (wt plants (FIG. 9C)), the “AtTHIC intron-spliced variant transcript” value is “down-regulation”. Further, the “total AtTHIC transcript” value with AtTHIC gene (wt plants and upf1, upf3 mutants (FIG. 9A)) is on record as “upregulation”. In the assay on AtTHIC gene (wt plants and upf1, upf3 mutants (FIG. 9B)), the “AtTHIC intron-retention variant transcript” value was “upregulation”. In addition, in the assay on thiamine biosynthesis, the TPP levels entry is recorded as “reduced” and the thiamine levels entry is on record as “increased”.

On to `Cc1ncc(C[n+]2csc(CCO[P@](=O)(O)OP(=O)(O)O)c2C)c(N)n1` [TPP, thiamine pyrophosphate], for which, in assay [2] (Atthi1 mutant plants), the “RFP expression directed by AtTHIC promoter” value is reported as “did not respond” and the “YFP expression regulated by AtTHIC 3' UTR” value was “regulated YFP expression in a TPP dependent manner”. For the same compound, in assay [2] (wt plants with double reporter gene system, increasing TPP concentrations), the “reporter gene expression (RFP and YFP)” value is “Only slight changes”.
